From ChEMBL document CHEMBL2176957, “Discovery of a novel noniminosugar acid α glucosidase chaperone series” (J Med Chem, 2012)
≈ marks a conversion by molar mass, not a printed value.

How the values were obtained:
[1] = molecular target: T1, Lysosomal alpha-glucosidase (Homo sapiens, UniProt P10253); assay: Inhibition of wild type recombinant GAA preincubated for 5 mins measured after 45 mins using blue-shifted dye by fluorescence assay
[2] = molecular target: T1, Lysosomal alpha-glucosidase; assay: Inhibition of wild type recombinant GAA preincubated for 5 mins measured after 45 mins using red-shifted dye by fluorescence assay
[3] = Aqueous solubility in PBS buffer
Liver = assay: Half life in mouse liver microsomes
Caco-2 [4] = assay: Permeability from apical to basolateral side of human Caco2 cells
Caco-2 [5] = assay: Permeability from basolateral to apical side of human Caco2 cells

Row | SMILES | IC50 [1] | IC50 [2] | IC50 ([1]; read-out: IC50) [µM] | IC50 ([2]; read-out: IC50) [µM] | also measured
1 | CC(=O)c1ccc(N2CCN(S(=O)(=O)c3ccc4c(c3)oc(=O)n4C)CC2)cc1 | Not Active | Not Active |  |  | 
2 | CC(=O)c1ccc(N2CCN(S(=O)(=O)c3ccc4[nH]c(=O)[nH]c4c3)CC2)cc1 | Not Active | Not Active |  |  | 
3 | CC(=O)c1ccc(N2CCN(S(=O)(=O)c3ccc4c(c3)C(=O)OC4)CC2)cc1 | Not Active | Not Active |  |  | 
4 | CC(=O)N1CCN(c2ccc(NS(=O)(=O)c3ccc4c(c3)CC(=O)N4)cc2)CC1 | Not Active | Not Active |  |  | 
5 | O=C1Cc2cc(S(=O)(=O)N3CCN(c4ccc(C(F)(F)F)cc4)CC3)ccc2N1 | Not Active | Not Active |  |  | 
6 | COC(=O)c1ccc(N2CCN(S(=O)(=O)c3ccc4c(c3)CC(=O)N4)CC2)cc1 |  |  | 25.9 | 36.6 | 
7 | O=C1Cc2cc(S(=O)(=O)N3CCN(c4ccc([N+](=O)[O-])cc4)CC3)ccc2N1 |  |  | 3.66 | 3.26 | 
8 | CC(=O)c1ccc(N2CCN(S(=O)(=O)c3ccc(N4CCCC4=O)cc3)CC2)cc1 | Not Active | Not Active |  |  | 
9 | CC(=O)c1ccc(N2CCN(S(=O)(=O)c3ccc4c(c3)CCCN4C(C)=O)CC2)cc1 | Not Active | Not Active |  |  | 
10 | CC(=O)c1ccc(N2CCN(C(=O)c3ccc4c(c3)CC(=O)N4)CC2)cc1 | Not Active | Not Active |  |  | 
11 | CC(=O)c1ccc(N2CCN(S(=O)(=O)c3ccc4c(c3)OCC(=O)N4)CC2)cc1 | Not Active | Not Active |  |  | 
12 | CC(=O)c1ccc(N2CCN(S(=O)(=O)c3ccc4c(c3)C(Cl)(Cl)C(=O)N4)CC2)cc1 |  |  | 32.6 | 41 | 
13 | N#Cc1ccc(N2CCN(S(=O)(=O)c3ccc4c(c3)CC(=O)N4)CC2)cc1 |  |  | 2.91 | 3.26 | solubility [3]: 14.9 µM (≈ 5.7 µg/mL); t1/2 (Liver): 57 min
14 | CC(=O)c1ccc(N2CCN(C(=O)c3ccc4c(c3)CCC(=O)N4)CC2)cc1 | Not Active | Not Active |  |  | 
15 | O=Cc1ccc(N2CCN(S(=O)(=O)c3ccc4c(c3)CC(=O)N4)CC2)cc1 |  |  | 3.66 | 4.11 | 
16 | O=C1Cc2cc(S(=O)(=O)N3CCN(c4ccc(F)cc4)CC3)ccc2N1 | Not Active | Not Active |  |  | 

Row | SMILES | IC50 [1] | IC50 [2] | IC50 ([1]; read-out: IC50) [µM] | IC50 ([2]; read-out: IC50) [µM] | also measured
17 | COc1ccc(N2CCN(S(=O)(=O)c3ccc4c(c3)CC(=O)N4)CC2)cc1 |  |  | 23.7 | 18.8 | 
18 | CC(=O)Nc1ccc(S(=O)(=O)N2CCN(c3ccc(C(C)=O)cc3)CC2)cc1 | Not Active | Not Active |  |  | 
19 | O=C1Cc2cc(S(=O)(=O)N3CCN(c4ccc(O)cc4)CC3)ccc2N1 |  |  | 1.88 | 2.37 | solubility [3]: 37.3 µM (≈ 13.9 µg/mL); Papp (Caco-2 [4]): 17.8 ×10⁻⁶ cm/s; t1/2 (Liver): > 60 min; Papp (Caco-2 [5]): 19.5 ×10⁻⁶ cm/s
20 | CC(=O)c1ccc(N2CCN(S(=O)(=O)c3ccc4c(c3)CCCC(=O)N4)CC2)cc1 | Not Active | Not Active |  |  | 
21 | O=C1Cc2cc(S(=O)(=O)N3CCN(c4ccc(CO)cc4)CC3)ccc2N1 |  |  | 13 | 13 | 
22 | O=C1Cc2cc(S(=O)(=O)N3CCN(c4ccc(Br)cc4)CC3)ccc2N1 | Not Active | Not Active |  |  | 
23 | O=C1Cc2cc(S(=O)(=O)N3CCNCC3)ccc2N1 | Not Active | Not Active |  |  | 
24 | O=C1Cc2cc(S(=O)(=O)N3CCN(c4ccc(Cl)cc4)CC3)ccc2N1 |  |  | 94.3 | 94.3 | 
25 | CC(=O)c1ccc(N2CCN(S(=O)(=O)c3ccc4c(c3)CCC(=O)N4)CC2)cc1 | Not Active | Not Active |  |  | 
26 | CC(=O)N1CCN(S(=O)(=O)c2ccc3c(c2)CC(=O)N3)CC1 |  |  | 11.9 | 14.9 | 
27 | CC(=O)c1ccc(N2CCN(S(=O)(=O)c3ccc4c(c3)n(C)c(=O)n4C)CC2)cc1 | Not Active | Not Active |  |  | 
28 | O=C1Cc2cc(S(=O)(=O)N3CCN(c4cccc(C(F)(F)F)c4)CC3)ccc2N1 |  |  | 14.9 | 14.9 | 
29 | CC(=O)c1ccc(N2CCN(S(=O)(=O)c3ccc4c(c3)CC(C)N4C(C)=O)CC2)cc1 (stereo not drawn) | Not Active | Not Active |  |  | 
30 | Cc1ccc(N2CCN(S(=O)(=O)c3ccc4c(c3)CC(=O)N4)CC2)cc1 | Not Active | Not Active |  |  | 
31 | CC(=O)c1ccc(N2CCN(S(=O)(=O)c3ccc4[nH]c(=O)oc4c3)CC2)cc1 | Not Active | Not Active |  |  | 
